Experimental data from US20260151354A1, “SOLID DISPERSION OF CURCUMIN DERIVATIVE METHOD FOR PREPARING SAME, AND USE THEREOF” (WENZHOU MEDICAL UNIVERSITY, priority 2022, published 2026).
Read-outs that look alike come from different tables or passages of the source.

Columns and labels:
[1] = Related substances after acceleration storage; type: physicochemical; conditions: C66 substance Batch C66-S-ZS-03-09, comparison
Method: (§1) Acceleration test conditions: aluminum foil bag packaging, sealed, 40±2° C., 75%±5% RH, sample placement;
(§2) Samples: Solid dispersions obtained in Examples 1, 2, and 3.

[2] = Solubility of C66 in solvents (Table 1); type: physicochemical
[3] = Solubility of C66 in buffer solutions of different pH (37° C. shaker 24 hours, HPLC); type: physicochemical; conditions: buffer solutions pH 1.0, 1.2, 2.0, 4.0, 5.0, 6.0, 6.8, 7.4
Method: In addition, the inventors also prepared a series of buffer solutions (pH 1.0, pH 1.2, pH 2.0, pH 4.0, pH 5.0, pH 6.0, pH 6.8, and pH 7.4) according to the recommended conditions of the Pharmacopoeia, to investigate the solubility of C66 under different pH conditions. Excess C66 powder was added to each of the solutions to obtain a mixture, the mixture was shaken in a 37° C. shaker for 24 hours. The C66 concentration was then measured using high-performance liquid chromatography.

in vivo = conditions: male, Beagle, dog
Method: (§3) 6 male Beagle dogs (with a weight of 8.00-8.62 kg per dog) that passed the quarantine were selected and divided into 2 groups by weight according to a completely random method, that is, oral administration group, and intravenous injection group, with 3 dogs in each group, and single gavage administration were given. The dogs were subjected to fasting but not water deprivation 12 hours before administration, and were provided with food 4 hours after administration, with free access to water. For the oral administration group, 1% sodium carboxymethyl cellulose (CMC-Na) was mixed with C66 substance to prepare a 0.6 mg/mL suspension for gavage. For the intravenous injection group, a required amount of C66 substance was weighed and dissolved in a solution containing 5% DMSO+10% polyethylene glycol-15 hydroxystearate+85% (20% 2-hydroxypropyl-β-cyclodextrin) to prepare a 1 mg/mL clear solution. Blood samples were collected at different time points after administration, and a concentration of C66 in the blood samples were detected by a liquid chromatograph mass spectrometer to obtain a drug concentration-time curve.
(§4) Plasma samples were analyzed using an AB Sciex 5500 (LC-MS/MS) with an electrospray ionization source (ESI), and monitored with a multiple reaction monitoring (MRM) scanning method in a positive ion mode. A gradient elution was performed with 0.1% formic acid aqueous solution-acetonitrile as a mobile phase. Unknown samples were subjected to protein precipitation using methanol before injection, with a flow rate of 0.3 mL/min. Chromatographic column: Kinetex® 1.7 μm, XB-C18 2.1*100 mm. Guard column: Phenomenex UHPLC C18 2.1 mm. A linear range of C66 was 1.000-288.0 ng/ml, with a lower limit of quantitation of 1.000 ng/mL.
(§5) The dogs were subjected to fasting but not water deprivation 12 hours before administration, and were provided with food 4 hours after administration, with free access to water.
(§6) For the oral administration groups, the blood collection time points were before administration and 15 min, 30 min, 45 min, 1 hour, 2 hours, 3 hours, 4 hours, 6 hours, 8 hours, 10 hours and 24 hours after administration, and 0.5-1.0 mL of blood were collected from a small saphenous vein outside a hind limb or a cephalic vein inside a forelimb, and placed into a heparin sodium anticoagulation tube. For the Intravenous injection group, the blood collection time points were before administration and 5 min, 15 min, 30 min, 45 min, 1 hour, 2 hours, 3 hours, 4 hours, 8 hours, 10 hours and 24 hours after administration, and 0.5-1.0 mL of blood were collected from a small saphenous vein outside a hind limb or a cephalic vein inside a forelimb, and placed into a heparin sodium anticoagulation tube. Main pharmacokinetic parameters such as AUC0-t, AUC0-∞, and t1/2 were calculated using a Phoenix WinNonlin 8.0 software.
(§7) Oral administration group 1: A required amount of C66 substance was weighed, and an appropriate amount of 1% CMC-Na was added to prepare a 0.6 mg/mL suspension.
(§8) Oral administration group 2: A required amount of C66 solid dispersion was weighed, and an appropriate amount of 1% CMC-Na was added to prepare a 0.6 mg/mL suspension.
(§9) Intravenous injection group: A required amount of C66 substance was weighed and dissolved in a solution containing 5% DMSO+10% polyethylene glycol-15 hydroxystearate+85% (20% 2-hydroxypropyl-β-cyclodextrin) to prepare a 1 mg/mL clear solution.

[4] = male, Beagle, dog, in vivo
Method: as §3, §4, §5, §6, §7, §8, §9

[5] = Permeability of C66 (previous studies); type: in vitro ADME
[6] = Content determination after acceleration storage; type: physicochemical; conditions: C66 substance Batch C66-S-ZS-03-09, comparison
Method: as §1, §2

[7] = Saturated concentration of C66 in SDS and Tween 80 solutions; type: physicochemical
Excerpt: The inventors also investigated the solubility of C66 in sodium dodecyl sulfate (SDS) and Tween 80 (T80). According to the recommended usage of surfactants specified in Handbook of Pharmaceutical Excipients, and recommendations from the National Medical Products Administration of China and the U.S. Food and Drug Administration (FDA), a proportion of surfactants in the solution is 1%-3%.

[8] = Cumulative dissolution of pulverized C66 substance in surfactant aqueous solutions; type: physicochemical; conditions: 60 min
Method: None of them reached the quality control requirement that the cumulative dissolution rate could be equal to or greater than 85% in 30 min-60 min.

O=C1/C(=C/c2ccccc2C(F)(F)F)CCC/C1=C\c1ccccc1C(F)(F)F [Example C66]
Isomer [1]: 0.038% | Other largest unknown impurities [1]: 0.025% | Process impurities 1 [1]: 0.188% | Process impurities 2 [1]: 0.385% | Solubility of C66 ([2]; Ethanol (95%)): Slightly soluble | Solubility of C66 ([2]; Hydrochloric acid solution with a pH of 1.0): Almost insoluble or insoluble | Solubility of C66 ([2]; Phosphate buffer with a pH of 6.8): Almost insoluble or insoluble | Solubility of C66 ([2]; Purified water): Almost insoluble or insoluble | water solubility ([2]; previous studies): poor | solubility under different pH conditions [3]: not dissolved | AUC(0-t) (in vivo; iv, 1 mg/kg, AUC0-t): 162 ng·h/mL | AUC(0-t) (in vivo; iv, 1 mg/kg, AUC0-t Mean): 148 ng·h/mL | AUC(0-inf) (in vivo; iv, 1 mg/kg, AUC0-∞): 163 ng·h/mL | AUC(0-inf) (in vivo; iv, 1 mg/kg, AUC0-∞ Mean): 149 ng·h/mL | Cmax (in vivo; iv, 1 mg/kg, Cmax): 334 ng/mL | Cmax (in vivo; iv, 1 mg/kg, Cmax Mean): 348 ng/mL | MRT last (in vivo; iv, 1 mg/kg, MRTlast): 0.684 h | MRT last (in vivo; iv, 1 mg/kg, MRTlast Mean): 0.598 h | Tmax (in vivo; iv, 1 mg/kg, Tmax): 0.083 h | Tmax (in vivo; iv, 1 mg/kg, Tmax Mean): 0.083 h | half-life (in vivo; iv, 1 mg/kg, half-life (t1/2)): ~30 min | half-life (in vivo; iv, 1 mg/kg, t1/2): 33.7 min | half-life (in vivo; iv, 1 mg/kg, t1/2 Mean): 30.4 min | AUC(0-t) (in vivo; po, 3 mg/kg, AUC0-t Mean): 31.8 ng·h/mL | AUC(0-inf) (in vivo; po, 3 mg/kg, AUC0-∞ Mean): 35.8 ng·h/mL | Cmax (in vivo; po, 3 mg/kg, Cmax Mean): 15.8 ng/mL | MRT last (in vivo; po, 3 mg/kg, MRTlast): 1.89 h | MRT last (in vivo; po, 3 mg/kg, MRTlast Mean): 1.71 h | Tmax (in vivo; po, 3 mg/kg, Tmax): 2 h | Tmax (in vivo; po, 3 mg/kg, Tmax Mean): 1.5 h | half-life (in vivo; po, 3 mg/kg, half-life (t1/2)): ~60 min | half-life (in vivo; po, 3 mg/kg, t1/2 Mean): 53.5 min | Tmax (in vivo; po, 3 mg/kg, time to reach peak concentration (Tmax)): ~1 h | Absolute bioavailability (AUC0-t) [4]: 7.16% | ratio of AUC0-t to AUC0-∞ ([4]; iv, 1 mg/kg): 99% | Relative bioavailability (AUC0-t) ([4]; po, 3 mg/kg): 15.02% | ratio of AUC0-t to AUC0-∞ ([4]; po, 3 mg/kg): 88% | permeability [5]: good | Content [6]: 98.5% | Saturated concentration of C66 ([7]; 1% SDS solution): 5.158 µg/mL | Saturated concentration of C66 ([7]; 1% Tween 80 solution): 1.410 µg/mL | Saturated concentration of C66 ([7]; 2% SDS solution): 9.046 µg/mL | Saturated concentration of C66 ([7]; 2% Tween 80 solution): 3.385 µg/mL | Saturated concentration of C66 ([7]; 3% SDS solution): 22.484 µg/mL | Saturated concentration of C66 ([7]; 3% Tween 80 solution): 15.231 µg/mL | cumulative dissolution rate ([8]; 3% sodium dodecyl sulfate aqueous solution, particle size D0.9<15 μm): 25.3% | maximum cumulative dissolution rate ([8]; different concentrations of CTAB aqueous solution): 18.9% | cumulative dissolution rate ([8]; different concentrations of triton X-100 aqueous solution): 26.3%
